From the NIST ThermoML archive (doi:10.1016/j.tca.2013.07.012)

How the values were obtained:
[1] = 101 kPa, Liquid, Vibrating tube method
[2] = xn = mol fraction of the nth substance listed; conditions: 101 kPa, Liquid, Vibrating tube method, x2 = 0

OCC(O)CO [glycerol]
[1]
Conditions	mass density [kg/m3]
278.15 K	1270.87
288.15 K	1264.4
293.15 K	1260.99
298.15 K	1257.91
308.15 K	1251.66
323.15 K	1242.11
333.15 K	1235.71
348.15 K	1225.79

O [water]
[1]
Conditions	mass density [kg/m3]
274.15 K	999.9
275.15 K	999.94
276.15 K	999.96
277.15 K	999.97
278.15 K	999.96
279.15 K	999.94
280.15 K	999.9
281.15 K	999.85
282.15 K	999.78
283.15 K	999.7
323.15 K	988.03
333.15 K	983.19
348.15 K	974.84

O [water] + OCC(O)CO
[2]
Conditions	mass density [kg/m3]
274.15 K	999.9
275.15 K	999.94
276.15 K	999.96
277.15 K	999.97
278.15 K	999.96
279.15 K	999.94
280.15 K	999.9
281.15 K	999.85
282.15 K	999.78
283.15 K	999.7
323.15 K	988.03
333.15 K	983.19
348.15 K	974.84
